From patent US8614170B2, “Method for treating fracturing water” (Schlumberger Technology Corporation, priority 2008, dated 2013)

Tests used:
[1] = test system: sessile sulfate reducing bacteria; test: Efficacy of metabolic inhibitor for sessile sulfate reducing bacteria (NACE standard TMO194-94 test method); type: cell-based, sulfate reducing bacteria (SRB)
Description: (§1) Efficacy of metabolic inhibitor for sulfate reducing bacteria was tested. NACE standard TMO194-94 test method was employed for testing the presence of general heterotrophic bacteria (GHB), acid producing bacteria (APB), and sulphate reducing bacteria (SRB) in field mix water samples at 85 deg F. (29.4 deg C.) containing different metabolic inhibitors and microbiocides: 100 ppm active or 200 ppm of calcium nitration solution and 125 ppm active glut or 500 ppm glut solution were used. In a first example, shown in FIG. 1, efficacy of metabolic inhibitor for planktonic sulfate reducing bacteria is tested. In a second example, shown in FIG. 2, efficacy of metabolic inhibitor for sessile sulfate reducing bacteria is tested.

[2] = test system: planktonic sulfate reducing bacteria; test: Efficacy of metabolic inhibitor for planktonic sulfate reducing bacteria (NACE standard TMO194-94 test method); type: cell-based; settings: planktonic SRB, field mix water samples at 85 deg F. (29.4 deg C.), FIG. 1
Description: as §1

**Q.** With “calcium nitration solution [metabolic inhibitor]” as the substance, how does the “impact on sessile versus planktonic population” value ([1]; maximum effect after 28 days) read?
**A.** greater impact on the sessile bacteria population than the planktonic population

**Q.** What about the “efficacy against sulfate reducing bacteria” value ([1]; sessile SRB, field mix water samples at 85 deg F. (29.4 deg C.), FIG. 2) of the same substance?
**A.** kill and/or inhibit the growth

**Q.** What about the “efficacy against sulfate reducing bacteria” value [2] of the same substance?
**A.** kill and/or inhibit the growth
